One may read the IC50 as the point on the concentration scale where inhibition reaches its midpoint. A high value points to weaker potency. In general, inhibition refers to the share of the control response that was lost under treatment. High values mean a strong effect, low ones a weak effect.

Data on three molecules can be found in ChEMBL document CHEMBL3763148, “Synthesis, structure elucidation, DNA-PK and PI3K and anti-cancer activity of 8- and 6-aryl-substituted-1-3-benzoxazines” (Eur J Med Chem, 2016).

In assay [1] the target is T1, Phosphatidylinositol 4,5-bisphosphate 3-kinase catalytic subunit delta isoform (Homo sapiens, UniProt O00329).
T1 sequence (O00329 whole entry): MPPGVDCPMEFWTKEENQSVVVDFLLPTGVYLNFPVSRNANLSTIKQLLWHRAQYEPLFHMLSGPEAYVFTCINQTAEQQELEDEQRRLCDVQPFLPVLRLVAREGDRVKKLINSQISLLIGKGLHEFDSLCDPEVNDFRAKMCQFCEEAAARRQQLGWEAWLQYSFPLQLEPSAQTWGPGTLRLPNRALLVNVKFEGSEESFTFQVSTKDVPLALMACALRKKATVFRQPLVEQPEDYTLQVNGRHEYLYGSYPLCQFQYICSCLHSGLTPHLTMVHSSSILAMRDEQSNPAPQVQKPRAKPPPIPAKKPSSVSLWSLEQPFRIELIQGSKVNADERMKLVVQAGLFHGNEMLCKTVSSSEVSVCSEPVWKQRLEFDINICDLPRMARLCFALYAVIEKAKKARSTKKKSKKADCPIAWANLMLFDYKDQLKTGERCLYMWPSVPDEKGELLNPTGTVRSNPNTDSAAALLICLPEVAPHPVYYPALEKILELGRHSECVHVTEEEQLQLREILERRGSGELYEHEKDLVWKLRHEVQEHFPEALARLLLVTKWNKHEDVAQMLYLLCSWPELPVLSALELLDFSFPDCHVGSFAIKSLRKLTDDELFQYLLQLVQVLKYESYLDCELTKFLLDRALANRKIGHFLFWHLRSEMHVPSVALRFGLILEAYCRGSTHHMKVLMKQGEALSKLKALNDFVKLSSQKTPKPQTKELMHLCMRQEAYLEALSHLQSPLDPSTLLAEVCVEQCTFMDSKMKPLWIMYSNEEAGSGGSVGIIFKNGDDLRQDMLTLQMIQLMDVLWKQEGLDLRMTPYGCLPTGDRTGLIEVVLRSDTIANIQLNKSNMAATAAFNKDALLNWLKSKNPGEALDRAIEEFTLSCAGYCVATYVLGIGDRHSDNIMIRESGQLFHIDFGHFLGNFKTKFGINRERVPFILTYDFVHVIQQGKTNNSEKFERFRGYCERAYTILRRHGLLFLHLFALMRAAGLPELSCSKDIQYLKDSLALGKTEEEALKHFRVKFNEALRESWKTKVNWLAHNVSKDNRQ
Put plainly: Inhibition of PI3Kdelta (unknown origin) incubated for 60 mins by kinase-glo luminescence assay.

Assay [2] relates to SN12C. Put plainly: Cytotoxicity against human SN12C cells assessed as cell growth inhibition at 10 uM after 48 hrs by SRB assay relative to control. Format: functional. Conditions: read-out: GI. On the technique in general: Sulforhodamine B stains cellular protein and so reports cell mass.
The subject of assay [3] is CCRF-CEM. The assay is described as follows: Cytotoxicity against human CCRF-CEM cells assessed as cell growth inhibition at 10 uM after 48 hrs by SRB assay relative to control. Format: functional. Conditions: read-out: GI.
The nature of assay [4]: Cytotoxicity against human UACC62 cells assessed as cell growth inhibition at 10 uM after 48 hrs by SRB assay relative to control. Format: functional. The settings on record: UACC-62, 48 h, read-out: GI.
Assay [5] deals with KM12. Put plainly: Cytotoxicity against human KM12 cells assessed as cell growth inhibition at 10 uM after 48 hrs by SRB assay relative to control. Format: functional. Conditions: KM12, 48 h, read-out: GI.
The test system of assay [6] is A498. Put plainly: Cytotoxicity against human A498 cells assessed as cell growth inhibition at 10 uM after 48 hrs by SRB assay relative to control. Format: functional. The settings on record: A498, 48 h, read-out: GI.
The nature of assay [7]: Cytotoxicity against human COLO205 cells assessed as cell growth inhibition at 10 uM after 48 hrs by SRB assay relative to control. Format: functional. The settings on record: COLO 205, 48 h, read-out: GI.
Assay [8] can be described thus: Cytotoxicity against human SNB75 cells assessed as cell growth inhibition at 10 uM after 48 hrs by SRB assay relative to control. Conditions: SNB-75, 48 h, read-out: GI. The format is functional.
The test system of assay [9] is T47D. Put plainly: Cytotoxicity against human T47D cells assessed as cell growth inhibition at 10 uM after 48 hrs by SRB assay relative to control. Format: functional. The settings on record: read-out: GI.
A short description of assay [10]: Cytotoxicity against human UO31 cells assessed as cell growth inhibition at 10 uM after 48 hrs by SRB assay relative to control. The format is functional. The settings on record: UO-31, 48 h, read-out: GI.
Assay [11] has as its system HT-29. Put plainly: Cytotoxicity against human HT-29 cells assessed as cell growth inhibition at 10 uM after 48 hrs by SRB assay relative to control. Format: functional. The settings on record: HT-29, 48 h, read-out: GI.
The nature of assay [12]: Cytotoxicity against human UACC257 cells assessed as cell growth inhibition at 10 uM after 48 hrs by SRB assay relative to control. The format is functional. The settings on record: UACC-257, 48 h, read-out: GI.
Assay [13] can be described thus: Cytotoxicity against human HCT116 cells assessed as cell growth inhibition at 10 uM after 48 hrs by SRB assay relative to control. Conditions: HCT-116, 48 h, read-out: GI. The format is functional.
Assay [14] relates to Malme-3M. Put plainly: Cytotoxicity against human MALME-3M cells assessed as cell growth inhibition at 10 uM after 48 hrs by SRB assay relative to control. Format: functional. Conditions: read-out: GI.
The subject of assay [15] is MDA-MB-468. Put plainly: Cytotoxicity against human MDA-MB-468 cells assessed as cell growth inhibition at 10 uM after 48 hrs by SRB assay relative to control. Format: functional. The settings on record: MDA-MB-468, 48 h, read-out: GI.
The subject of assay [16] is A549. The assay is described as follows: Cytotoxicity against human A549 cells assessed as cell growth inhibition at 10 uM after 48 hrs by SRB assay relative to control. Format: functional. The settings on record: A549, 48 h, read-out: GI.
Assay [17] deals with Phosphatidylinositol 4,5-bisphosphate 3-kinase catalytic subunit gamma isoform (Homo sapiens) (UniProt P48736). The assay is described as follows: Inhibition of PI3Kgamma (unknown origin) at 10 uM incubated for 60 mins by kinase-glo luminescence assay. In general terms: Kinase-Glo measures the ATP left after a reaction by luminescence.
A short description of assay [18]: Cytotoxicity against human SW620 cells assessed as cell growth inhibition at 10 uM after 48 hrs by SRB assay relative to control. Format: functional. Conditions: SW-620, 48 h, read-out: GI.
The nature of assay [19]: Cytotoxicity against human HCC2998 cells assessed as cell growth inhibition at 10 uM after 48 hrs by SRB assay relative to control. The format is functional. Conditions: HCC 2998, 48 h, read-out: GI.
In assay [20] the test system is NCI-H522. Put plainly: Cytotoxicity against human NCI-H522 cells assessed as cell growth inhibition at 10 uM after 48 hrs by SRB assay relative to control. Format: functional. Conditions: NCI-H522, 48 h, read-out: GI.
The test system of assay [21] is SK-MEL-5. The assay is described as follows: Cytotoxicity against human SK-MEL-5 cells assessed as cell growth inhibition at 10 uM after 48 hrs by SRB assay relative to control. The settings on record: SK-MEL-5, 48 h, read-out: GI. Format: functional.
Assay [22] can be described thus: Cytotoxicity against human PC3 cells assessed as cell growth inhibition at 10 uM after 48 hrs by SRB assay relative to control. Format: functional. Conditions: PC-3, 48 h, read-out: GI.
Assay [23] concerns M14. The assay is described as follows: Cytotoxicity against human M14 cells assessed as cell growth inhibition at 10 uM after 48 hrs by SRB assay relative to control. The format is functional. Conditions: M14, 48 h, read-out: GI.
Assay [24] can be described thus: Cytotoxicity against human OVCAR4 cells assessed as cell growth inhibition at 10 uM after 48 hrs by SRB assay relative to control. The format is functional. The settings on record: OVCAR-4, 48 h, read-out: GI.

Chain of Phosphatidylinositol 4,5-bisphosphate 3-kinase catalytic subunit gamma isoform (Homo sapiens) (P48736 whole entry, looked up, canonical isoform): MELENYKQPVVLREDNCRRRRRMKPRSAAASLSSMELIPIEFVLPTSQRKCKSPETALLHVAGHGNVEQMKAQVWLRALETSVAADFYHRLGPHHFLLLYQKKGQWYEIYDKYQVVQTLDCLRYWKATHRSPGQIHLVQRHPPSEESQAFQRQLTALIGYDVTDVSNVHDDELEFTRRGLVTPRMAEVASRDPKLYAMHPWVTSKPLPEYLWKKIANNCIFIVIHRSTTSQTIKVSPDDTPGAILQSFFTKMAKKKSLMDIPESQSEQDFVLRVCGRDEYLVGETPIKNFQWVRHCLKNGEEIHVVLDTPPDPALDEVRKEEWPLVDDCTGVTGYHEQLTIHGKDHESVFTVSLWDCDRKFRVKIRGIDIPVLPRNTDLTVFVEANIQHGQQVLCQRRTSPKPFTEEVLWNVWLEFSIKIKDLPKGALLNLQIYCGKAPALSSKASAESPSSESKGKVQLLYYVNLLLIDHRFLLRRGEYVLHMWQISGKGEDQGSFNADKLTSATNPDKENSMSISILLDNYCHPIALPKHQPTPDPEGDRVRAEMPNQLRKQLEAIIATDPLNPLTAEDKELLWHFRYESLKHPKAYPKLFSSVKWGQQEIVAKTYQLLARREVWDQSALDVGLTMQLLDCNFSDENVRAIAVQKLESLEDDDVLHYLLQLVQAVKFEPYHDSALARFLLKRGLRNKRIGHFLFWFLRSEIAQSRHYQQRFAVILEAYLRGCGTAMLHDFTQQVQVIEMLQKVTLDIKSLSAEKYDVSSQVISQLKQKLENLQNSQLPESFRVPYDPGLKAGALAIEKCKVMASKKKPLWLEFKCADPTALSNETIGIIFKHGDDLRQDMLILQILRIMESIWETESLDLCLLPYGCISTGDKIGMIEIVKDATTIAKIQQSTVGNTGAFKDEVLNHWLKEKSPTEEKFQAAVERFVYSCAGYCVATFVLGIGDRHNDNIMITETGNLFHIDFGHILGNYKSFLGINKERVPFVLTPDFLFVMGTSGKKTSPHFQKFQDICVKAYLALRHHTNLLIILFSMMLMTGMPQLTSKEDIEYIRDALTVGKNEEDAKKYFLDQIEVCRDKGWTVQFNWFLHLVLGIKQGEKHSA

`O=c1nc(N2CCOCC2)oc2c(-c3cccc4c3oc3ccccc34)cccc12` had a half-inhibitory concentration (IC50) in assay [1] of 12 µM. In addition, the inhibition of growth at 10 µM in assay [2] is 5.07%; in assay [3], 11.6%; in assay [4] it was 37.4%; in [5], 12.7%; in [6] it was 27.9%; in assay [7], -2.34%. Further, the inhibition of growth at 10 µM in assay [8] is 41.5%; in [9], 15.1%; in assay [10], 40.1%; in assay [11], 1.56%; in [12], -3.42%; in assay [13], 6.54%. In addition, the inhibition of growth at 10 µM was 19.7% in assay [14]; 18.7% in [15]; 12% in assay [16]; 0.96% in assay [18]; -4.36% in assay [19]; 23% in assay [20]. In addition, the inhibition of growth at 10 µM in assay [21] was 13.7%; in [22] it was 23.2%; in [23], -2.42%; in assay [24], -1.43%. The inhibition in assay [17] stood at 32%.
`O=c1nc(N2CCOCC2)oc2c(-c3cccs3)cccc12` yielded an IC50 in [1] of 4.5 µM. Besides, the inhibition of growth at 10 µM is -3.08% in assay [2]; 2.36% in [3]; 20.9% in assay [4]; 1.99% in [5]; 36.8% in assay [6]; 1.02% in [7]. In addition, the inhibition of growth at 10 µM in assay [8] is 32.7%; in assay [9], 17.8%; in assay [10] it was 20.2%; in [11] it was 6.61%; in assay [12], 3.74%; in assay [13], 2.65%. The inhibition of growth at 10 µM in [14] is 16.1%; in assay [15], 20.3%; in [16] it was 5.77%; in [18], 1.09%; in [19], -4.81%; in [20], 13.8%. Also, the inhibition of growth at 10 µM turned out to be 13.3% in [21], 17.2% in [22], 0.86% in [23] and 2.16% in [24]. Besides, in assay [17], the inhibition turned out to be 16%.
The molecule `COc1ccc(-c2cccc3c(=O)nc(N4CCOCC4)oc23)cc1` gave an IC50 in assay [1] of 2.7 µM. Moreover, the inhibition of growth at 10 µM in [2] was 8.75%; in assay [3], 2.57%; in assay [4], 19.3%; in assay [5], 2.91%; in assay [6], 27.1%; in assay [7], -2.6%. Further, the inhibition of growth at 10 µM came to 38.2% in assay [8]; 38.5% in assay [9]; 17.4% in assay [10]; 10.8% in assay [11]; 4.28% in [12]; 7.05% in assay [13]. Moreover, the inhibition of growth at 10 µM was -4.08% in assay [14]; 6.21% in assay [15]; 5.88% in [16]; 0.87% in assay [18]; -5.73% in assay [19]; 12.8% in [20]. Besides, the inhibition of growth at 10 µM in assay [21] is 9.19%; in assay [22], 14.9%; in assay [23], -0.43%; in assay [24], 2.85%. The molecule further registered an inhibition in assay [17] of 7%.
